Experimental data as given in PubChem BioAssay AID248 (DTP/NCI, 2004).
Values joined by “and” are separate entries in the source; they are usually repeats but may differ in a detail not shown here. Equal entries are not always repeated. Inconclusive results and toxic doses are left out. No stated cut-off is given here; in the data, active means T/C of 150% or more; inactive means T/C below 125%.

Test system: L1210 leukemia ip in BDF1 mice, survival T/C
Test: NCI In Vivo Anticancer Drug Screen. Data for tumor model L1210 Leukemia (intraperitoneal) in B6D2F1 (BDF1) mice
Details: endpoint: mean survival time, higher = longer survival
Method in brief: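 Mice bearing the transplanted tumor received compound or vehicle. Survival of the treated group was divided by that of the vehicle-treated control group to give the ratio.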

[1] = dose: 100.0 mg/kg/injection, schedule: Q04DX003 (ip), vehicle: saline
[2] = dose: 200.0 mg/kg/injection, schedule: Q04DX003 (ip), vehicle: saline
[3] = dose: 100.0 mg/kg/injection, schedule: Q04DX002 (ip), vehicle: Klucel (hydroxypropylcellulose) (HPC)
[4] = dose: 200.0 mg/kg/injection, schedule: Q04DX002 (ip), vehicle: Klucel (hydroxypropylcellulose) (HPC)
[5] = dose: 400.0 mg/kg/injection, schedule: Q04DX002 (ip), vehicle: Klucel (hydroxypropylcellulose) (HPC)
[6] = dose: 400.0 mg/kg/injection, schedule: Q04DX003 (ip), vehicle: saline
[7] = dose: 100.0 mg/kg/injection, schedule: Q01DX001 (ip), vehicle: saline
[8] = dose: 200.0 mg/kg/injection, schedule: Q01DX001 (ip), vehicle: saline

Measured: T/C

CNCCN(C)CCNC
inactive: dose: 50.0 mg/kg/injection, schedule: Q01DX009 (ip), vehicle: saline 104 % of control | dose: 100.0 mg/kg/injection, schedule: Q01DX009 (ip), vehicle: saline 101 % of control | [1] 103 % of control | [2] 96 % of control

CC(=O)Oc1c2cccc3c(=O)c4cccc5c4-c(c23)c2c1cccc2c5=O
inactive: dose: 100.0 mg/kg/injection, schedule: Q04DX003 (ip), vehicle: saline with Tween-80 95 % of control | dose: 200.0 mg/kg/injection, schedule: Q04DX003 (ip), vehicle: saline with Tween-80 95 % of control | dose: 400.0 mg/kg/injection, schedule: Q04DX003 (ip), vehicle: saline with Tween-80 101 % of control

CCNC(C)(C)C(SSS)c1cccs1 (stereo not given)
inactive: dose: 100.0 mg/kg/injection, schedule: Q01DX009 (ip), vehicle: saline sonified 96 % of control | dose: 100.0 mg/kg/injection, schedule: Q04DX003 (ip), vehicle: saline sonified 91 % of control | dose: 200.0 mg/kg/injection, schedule: Q01DX009 (ip), vehicle: saline sonified 94 % of control | dose: 200.0 mg/kg/injection, schedule: Q04DX003 (ip), vehicle: saline sonified 87 % of control | dose: 400.0 mg/kg/injection, schedule: Q01DX009 (ip), vehicle: saline sonified 88 % of control | dose: 400.0 mg/kg/injection, schedule: Q04DX003 (ip), vehicle: saline sonified 89 % of control

COC1OC2COCOC2C(OC(C)=O)C1OC(C)=O (stereo not given)
inactive: dose: 50.0 mg/kg/injection, schedule: Q04DX002 (ip), vehicle: Klucel (hydroxypropylcellulose) (HPC) 104 % of control | [3] 103 % of control and 100 % of control | [4] 95 % of control and 104 % of control and 92 % of control | [5] 103 % of control and 113 % of control

N#CCCCI
inactive: dose: 50.0 mg/kg/injection, schedule: Q04DX003 (ip), vehicle: acetone 96 % of control | dose: 100.0 mg/kg/injection, schedule: Q04DX003 (ip), vehicle: acetone 100 % of control | dose: 200.0 mg/kg/injection, schedule: Q04DX003 (ip), vehicle: acetone 105 % of control

CCCCOC(=O)c1ccc(NC(=O)Nc2cc(C(F)(F)F)ccc2Cl)cc1
inactive: dose: 100.0 mg/kg/injection, schedule: Q01DX009 (ip), vehicle: Klucel (hydroxypropylcellulose) (HPC) 107 % of control | dose: 200.0 mg/kg/injection, schedule: Q01DX009 (ip), vehicle: Klucel (hydroxypropylcellulose) (HPC) 113 % of control | dose: 400.0 mg/kg/injection, schedule: Q01DX009 (ip), vehicle: Klucel (hydroxypropylcellulose) (HPC) 94 % of control

CN(C)C(=O)Nc1cccnc1
inactive: dose: 75.0 mg/kg/injection, schedule: Q04DX003 (ip), vehicle: saline 97 % of control | dose: 150.0 mg/kg/injection, schedule: Q04DX003 (ip), vehicle: saline 106 % of control | dose: 300.0 mg/kg/injection, schedule: Q04DX003 (ip), vehicle: saline 101 % of control

CC1(CCC(=O)O)CCCCC1=O (stereo not given)
inactive: [1] 96 % of control | [2] 96 % of control | [6] 112 % of control

CCOC(=O)N(CCC(=O)OC(C)(C)C)CC(=O)OC(C)(C)C
inactive: dose: 75.0 mg/kg/injection, schedule: Q01DX001 (ip), vehicle: saline 92 % of control | dose: 150.0 mg/kg/injection, schedule: Q01DX001 (ip), vehicle: saline 95 % of control | dose: 300.0 mg/kg/injection, schedule: Q01DX001 (ip), vehicle: saline 101 % of control

CCOP(=O)(OCC)c1ccc([N+](=O)[O-])cc1
inactive: [7] 87 % of control | [8] 89 % of control

CCOC(=O)C(C#N)=C([SH2+])[SH2+].CCOC(=O)C(C#N)=C([SH2+])[SH2+].[Cu+2].c1ccc(C[P+](c2ccccc2)(c2ccccc2)c2ccccc2)cc1
inactive: [7] 92 % of control | [1] 102 % of control | [8] 87 % of control | [2] 97 % of control | dose: 400.0 mg/kg/injection, schedule: Q01DX001 (ip), vehicle: saline 89 % of control | [6] 91 % of control

CCCCS(=O)(=O)C1C2CCC(O2)C1S(=O)(=O)CCCC (stereo not given)
inactive: [3] 92 % of control | [4] 105 % of control | [5] 101 % of control

COc1cc(N)ccc1C(=O)O
inactive: [1] 94 % of control | [2] 96 % of control | [6] 97 % of control

C=C(Cl)COCC1CO1 (stereo not given)
inactive: dose: 44.0 mg/kg/injection, schedule: Q01DX Z (ip), vehicle: saline 92 % of control | dose: 66.0 mg/kg/injection, schedule: Q01DX Z (ip), vehicle: saline 110 % of control | dose: 100.0 mg/kg/injection, schedule: Q01DX Z (ip), vehicle: saline 94 % of control

O=NN(CCCCl)C(=O)Nc1ccc(NC(=O)N(CCCCl)N=O)cc1
inactive: dose: 12.5 mg/kg/injection, schedule: Q01DX001 (ip), vehicle: carboxymethylcellulose (CMC) 111 % of control | dose: 25.0 mg/kg/injection, schedule: Q01DX001 (ip), vehicle: carboxymethylcellulose (CMC) 109 % of control | dose: 50.0 mg/kg/injection, schedule: Q01DX001 (ip), vehicle: carboxymethylcellulose (CMC) 106 % of control | dose: 100.0 mg/kg/injection, schedule: Q01DX001 (ip), vehicle: carboxymethylcellulose (CMC) 117 % of control | dose: 200.0 mg/kg/injection, schedule: Q01DX001 (ip), vehicle: carboxymethylcellulose (CMC) 111 % of control | dose: 300.0 mg/kg/injection, schedule: Q01DX001 (ip), vehicle: carboxymethylcellulose (CMC) 111 % of control | dose: 400.0 mg/kg/injection, schedule: Q01DX001 (ip), vehicle: carboxymethylcellulose (CMC) 106 % of control | dose: 500.0 mg/kg/injection, schedule: Q01DX001 (ip), vehicle: carboxymethylcellulose (CMC) 106 % of control | dose: 600.0 mg/kg/injection, schedule: Q01DX001 (ip), vehicle: carboxymethylcellulose (CMC) 109 % of control | dose: 800.0 mg/kg/injection, schedule: Q01DX001 (ip), vehicle: carboxymethylcellulose (CMC) 112 % of control | dose: 1000.0 mg/kg/injection, schedule: Q01DX001 (ip), vehicle: carboxymethylcellulose (CMC) 114 % of control
